Experimental data as given in US20240408005A1, “USE OF CALCIUM SENSING RECEPTOR ANTAGONISTS FOR TREATING OCULAR DISORDERS” (The Regents of the University of California, priority 2023, published 2024).

Legend:
[1] = tested on: CFTR; assay: Ocular surface potential difference (OSPD), forskolin / CFTRinh-172 responses; format: in vivo, mouse
Excerpt: (§1) Using pharmacological activators and inhibitors, OSPD allows studying activities of various ion channels/transporters in the ocular surface.^12 In these studies, baseline OSPD is established using a high Cl^− solution that mimics the tear film. OSPD changes induced by amiloride (ENaC inhibitor) indicates Na^+ transport via ENaC. Similarly, OSPD changes induced by forskolin (cAMP agonist) and CFTRinh-172 (CFTR inhibitor) indicates Cl^− secretion via cAMP-activated Cl^− channels and particularly CFTR. Lastly, OSPD changes induced by Ca^2+ agonist ATP indicates Cl^− secretion mediated by CaCCs.
Sequential perfusion of the ocular surface with solutions containing amiloride (ENaC inhibitor), forskolin (cAMP agonist), CFTRinh-172 (CFTR inhibitor), and ATP (Ca^2+ agonist) thus allows determining activities of ENaC, CFTR, and CaCC ion channels, respectively (FIG. 4A).
The compositions of perfusion solutions follow the solutions used in the standardized human nasal and ocular potential difference protocol.^12,13 Solutions #1-3 (high Cl^−, amiloride, and low Cl^−, respectively) were made in 1-liter batches, pH balanced to 7.4, and filtered in a sterile environment prior to refrigeration and used within 3 months. Solution #1 (high Cl^−) contained 1 L Ringer's injection (containing 147 mM NaCl, 2 mM CaCl2), 4 mM KCl, 2.4 mM K2HPO4, 0.4 mM KH2PO4, and 1.2 mM MgCl2. 100 μM amiloride was added to Solution #1 to create Solution #2 (amiloride). Solution #3 (low Cl^−) was identical to Solution #1, except NaCl was replaced with sodium gluconate. Cinacalcet (CaSR agonist) and NPS-2143 (CaSR antagonist) were purchased from Tocris Bioscience (Minneapolis, MN, USA). All other chemicals were purchased from Sigma-Aldrich (St. Louis, MO, USA).
Ocular surface potential difference (OSPD) and tear fluid volume measurements were performed in mice with topically applied cinacalcet (CaSR activator) and NPS-2143 (CaSR inhibitor). Mice were anesthetized with isoflurane and body temperature was maintained at 37° C. via a heating pad. As described previously,^12,14,15 open-circuit transepithelial potential differences were measured in response to serial perfusions of different isoosmolar (310 mOsm/kg H2O) solutions over the ocular surface at 5-10 ml/min. The measuring electrode was in contact with the perfusion catheter which was carefully positioned using a three-axis micromanipulator directly above the mouse ocular surface and the reference electrode was grounded via a 23-gauge butterfly needle agar bridge inserted subcutaneously in the back. Measuring and reference electrodes consisted of Ag/AgCl with 3 M KCl agar bridges, and both electrodes were connected to an ISO-Z headstage, BMA-200 high-impedance amplifier/voltmeter, and PowerLab analog-to-digital converter (ADInstruments; Colorado Springs, CO, USA) connected to a computer (FIG. 1). Each solution was perfused onto the ocular surface using a gravity perfusion system (ALA Scientific; Farmingdale, NY, USA) for 1-3 minutes until a stable OSPD reading was obtained.

[2] = tested on: CaCC; assay: Ocular surface potential difference (OSPD), ATP-induced hyperpolarization; format: in vivo, mouse
Excerpt: as §1, with “CaCCs. […]” for “CaCCs.”
(§2) Ocular surface potential difference (OSPD) and tear fluid volume measurements were performed in mice with topically applied cinacalcet (CaSR activator) and NPS-2143 (CaSR inhibitor). […] As described previously,^12,14,15 open-circuit transepithelial potential differences were measured in response to serial perfusions of different isoosmolar (310 mOsm/kg H2O) solutions over the ocular surface at 5-10 ml/min. […] Each solution was perfused onto the ocular surface using a gravity perfusion system (ALA Scientific; Farmingdale, NY, USA) for 1-3 minutes until a stable OSPD reading was obtained.

[3] = tested on: ENaC; assay: Ocular surface potential difference (OSPD), amiloride-induced depolarization; format: in vivo, mouse; settings: topical, 100 μM amiloride, 0-30 μM cinacalcet in all solutions
Excerpt: as §1, with “CaCCs. […]” for “CaCCs.”
as §2

[4] = tested on: mouse ocular surface; assay: Baseline ocular surface potential difference (OSPD); format: in vivo; settings: topically administered, mice
Excerpt: as §1, with “CaCCs. […]” for “CaCCs.”
as §2

[5] = in vivo; cited from earlier work
[6] = Tear fluid volume by endodontic absorbent paper point tear test (EAPPTT); format: in vivo, BALB/c mice; settings: for EAPPTT wetting length: 0.001% single 10 μL dose, baseline 2.3±0.2 mm
Procedure: […] All mice were kept at ambient conditions (approximately 50% humidity and 21° C.) and provided unrestricted access to food and water.

In the case of `C[C@@H](NCCCc1cccc(C(F)(F)F)c1)c1cccc2ccccc12` [cinacalcet], the “lower CFTRinh-172 response (CFTR activity)” value ([1]; at 30 μM, 10 μM CFTRinh-172, FIG. 4E) is reported as “up to 90%”, the “lower forskolin response (CFTR activity)” value ([1]; at 30 μM, 10 μM forskolin, FIG. 4D) is reported as “up to 90%” and the “inhibition of forskolin-induced Cl− secretion and CFTR activity” value ([1]; at 30 μM, concentration-dependent, topical, mice) is reported as “up to 90%”. For the same molecule, the “inhibition of ATP response” value ([2]; 30 μM cinacalcet, 100 μM ATP, without prior forskolin and CFTRinh-172, FIG. 5) was roughly 50%, the “lower ATP-induced hyperpolarization (CaCC activity)” value ([2]; 100 μM ATP added after forskolin and CFTRinh-172, FIG. 4F) was 90% and the “effect on ENaC activity / Na+ absorption mediated by ENaC (amiloride-induced depolarization)” value [3] was “no effect”. For the same molecule, the “effect on baseline OSPD” value [4] was “no effect”.
For `O=c1ccn([C@@H]2O[C@H](COP(=O)(O)OP(=O)(O)OP(=O)(O)OP(=O)(O)OC[C@H]3O[C@@H](n4ccc(=O)[nH]c4=O)[C@H](O)[C@@H]3O)[C@@H](O)[C@H]2O)c(=O)[nH]1` [diquafosol], the “outcome of clinical trials for DED” value [5] is listed as “did not meet the primary endpoints”.
In the case of `CC(C)(Cc1ccc2ccccc2c1)NC[C@@H](O)COc1cccc(Cl)c1C#N` [NPS-2143, 2-chloro-6-[(2R)-3-([1,1-dimethyl-2-(2-naphthalenyl)ethyl]amino)-2-hydroxypropoxy]benzonitrile], the “increased tear fluid volume” value ([6]; 0.001% or 30 μM, single 10 μL dose, 15 minutes after treatment) is reported as 60%, the EAPPTT wetting length ([6]; 15 minutes after administration, mean±SEM) is reported as 3.6±0.2 mm and the EAPPTT wetting length ([6]; 8 hours after administration) is reported as 3.6±0.2 mm. For the same molecule, the “reversibility of effect on tear volume” value ([6]; 24 h after treatment) was “return of tear volume to near baseline values”, the “increase of tear fluid volume” value ([6]; single dose topical 0.001% or 30 μM, for at least eight hours) was greater than 60% and the “reversal of response by CFTR inhibitor CFTRinh-172” value ([1]; 30 μM, 10 μM CFTRinh-172) was “partially reversed”. For the same molecule, the “hyperpolarization relative to subsequently applied maximal forskolin-induced hyperpolarization” value ([1]; 30 μM, 10 μM forskolin) was 70% and the “hyperpolarization (OSPD change)” value ([1]; perfusion of ocular surface with 30 μM) was −13 mV.
